This is an account of results in publication PMC2120445 (The Journal of Cell Biology, 1995).

Like-named read-outs stand apart in the source and are kept apart here. Where no end group is shown, it is not given here.

One data set has as its system Schwann cells. The following applies: cited from earlier work; for promotion of Schwann cell proliferation: rat sciatic nerve Schwann cells in culture, ref Eccleston, 1992, Ratner et al., 1988.
In the next data set the test system is erbB2 receptor. Conditions: Schwann cells; ref Weinmaster and Lemke (1990), Mudge, 1993 (review); cited from earlier work.
For data set [1], the system named is Schwann cells (rat sciatic nerve). The class given is cell-based. Conditions: for BrdU incorporation compared with forskolin: agent alone, without PDGF, pulsatile regime; for doubling time / cells synthesizing DNA in 24 h: in the presence of PDGF; for doubling time: estimated from cells synthesizing DNA; for cells synthesizing DNA in 24 h: increased from 10%, Discussion.

Data set [2] deals with sciatic nerve fibroblasts. The data set is described as follows: Proliferation of sciatic nerve fibroblasts induced by PDGF. The following applies: Kahn and Mudge, unpublished results. The class given is cell-based, rat.
For the next data set, the system named is PDGF receptor. Conditions: ref Weinmaster and Lemke, 1990, cited from earlier work.
For data set [3], the system named is Schwann cells (rat sciatic nerve). The class given is cell-based. Conditions: for doubling time: estimated from BrdU incorporation.
For data set [4], the system named is sciatic nerve fibroblasts. Kind of data set: Intracellular cAMP accumulation in sciatic nerve fibroblasts. The class given is cell-based, rat. The following applies: for dependence of cAMP effect on culture age: with IBMX, 2 d versus 7 d cultures, Fig. 2. A general note: Cyclic AMP is a second messenger, typically raised through Gs and lowered through Gi signalling.

In data set [5] the test system is Schwann cells (rat sciatic nerve). The class given is cell-based. The following applies: for attenuation (desensitization) of cAMP response with time: Schwann cells, even in the presence of IBMX.
Another data set deals with cultured Schwann cells. Conditions: ref Yasuda et al., 1988; cited from earlier work.
A further data set has as its system macrophages. Conditions: ref Wiik, 1989; Vignery et al., 1991; cited from earlier work.
The subject of data set [6] is neutral endopeptidase 24.11. Conditions: ref Davies et al., 1992; Turner, A. J., personal communication; cited from earlier work.
[7] abbreviates: cultured Schwann cells, ref Raff et al., 1978a,b, Ridley et al., 1989, Davis and Stroobant, 1990, Weinmaster and Lemke, Chen et al., 1991, Stewart et al., Goodearl et al., 1993, Marchionni et al.
Setting [8] is: with 10 ng/ml PDGF-BB, pulsatile, Fig. 6 b.

As to “FGF-1: growth factor, literature mitogen”, the “promotion of Schwann cell proliferation” value in the data set with Schwann cells is listed as “promote the proliferation”.

Consider `CCCC(=O)Nc1ncnc2c1ncn2[C@@H]1O[C@@H]2COP(=O)(O)O[C@H]2[C@H]1OC(=O)CCC` [dibutyryl cAMP], for which, in the data set with Schwann cells (setting [7]), the “potentiation of response to growth factors” value (shortened to “potentiation of response”) is on record as “greatly potentiated”.

Regarding “FGF-2: growth factor, literature mitogen”, in the data set with Schwann cells, the “promotion of Schwann cell proliferation” value is “promote the proliferation”.

For the molecule `C=C[C@@]1(C)CC(=O)[C@]2(O)[C@@]3(C)[C@@H](O)CCC(C)(C)[C@@H]3[C@H](O)[C@H](OC(C)=O)[C@@]2(C)O1` [forskolin], the erbB2 receptor expression entry in the data set on erbB2 receptor is given as “upregulated”. Moreover, in [1] (fold, with 10 ng/ml PDGF-BB, pulsatile, every 3 h with 3-h wash-out, Fig. 6 b), the “increase in BrdU incorporation, together with PDGF” value was “eightfold”. Moreover, in data set [1] (setting [8]), the “type of interaction with PDGF” value is reported as “synergistic”. The “effect on PDGF-induced proliferation of fibroblasts” value in data set [2] is given as “inhibits the proliferation of sciatic nerve fibroblasts induced by PDGF”. Besides, in the data set with PDGF receptor, the “synthesis of PDGF beta receptor” value is reported as “increased synthesis” and the “treatment time required to increase PDGF beta receptor mRNA” value was 12 to 24 h. Further, the “effect of a single 3-h pulse on PDGF beta receptor mRNA” value in the data set on PDGF receptor (single 3-h pulse) is “ineffective”. In addition, the DNA synthesis entry in the data set on Schwann cells (1 µM forskolin and PDGF, ref Stewart et al., 1991) is reported as “no DNA synthesis”. For the same molecule, in the data set on Schwann cells (PDGF and 10 µM forskolin, ref Stewart et al., 1991), the “cells incorporating BrdU in 24 h” value is on record as 6%. Also, in the data set on Schwann cells (setting [7]), the “potentiation of response” value is given as “greatly potentiated”. Also, the doubling time in data set [3] (1 µM forskolin with PDGF, continuous) was ~ 2 d. In addition, in data set [3] (1 µM forskolin with PDGF, continuous, range in at least 10 different experiments), the “Schwann cells incorporating BrdU in 24 h” value is reported as 40-60%.

Consider peptide histidine-isoleucine [PHI], for which the “dependence of cAMP effect on culture age” value in [4] is “only seen in the older cultures”.

Regarding cholera toxin, in the data set with Schwann cells, the “potentiation of response” value is “greatly potentiated”.

For `CC(C)NCC(O)c1ccc(O)c(O)c1` (stereo not shown) [isoproterenol], in [1] (Fig. 6 b), the “BrdU incorporation compared with forskolin” value was “comparable to the effect of forskolin”. Also, in [1] (pulsatile), the doubling time is ~ 4 d and the “cells synthesizing DNA in 24 h” value is recorded as ~25%. Further, the “type of interaction with PDGF” value in [1] (setting [8]) is recorded as “simply additive”. In addition, in [5] (3-d versus 8-d cells, 5 min, Fig. 1), the “dependence of cAMP response on culture age” value is listed as “more pronounced in 8-d cells”. The “attenuation (desensitization) of cAMP response with time” value in data set [5] (Fig. 4 a) is listed as “declined with time in similar fashion to the CGRP response”. The “plateau of cAMP effect” value in the data set on cultured Schwann cells was “did not plateau even at 10-4 M”.

Regarding glial growth factor [GGF], the “promotion of Schwann cell proliferation” value with Schwann cells was “promote the proliferation”. In addition, the “mitogenicity without forskolin / enhancement of GGF effect” value in the data set with Schwann cells (ref Davis and Stroobant, 1990, Goodearl et al., 1993, Marchionni et al.) is “is a mitogen without forskolin”.

For the molecule “vasoactive intestinal peptide (HSDAVFTDNYTRLRKQMAVKKYLNSILN; ends and bridges not checked; UniProt P01282 125-152, looked up) [VIP]”, the “dependence of cAMP effect on culture age” value in data set [4] is recorded as “only seen in the older cultures”. In addition, the cAMP in macrophages result in the data set with macrophages is “increase cAMP levels in macrophages”. Further, the “plateau of cAMP effect” value in the data set on cultured Schwann cells is “did not plateau even at 10-4 M”.

In the case of calcitonin gene-related peptide [CGRP], in data set [4] (compared with Schwann cells, 5 x 10-s M CGRP (so in the source), 200 µM IBMX, Fig. 4 b), the “attenuation of cAMP response” value was “even more rapid”. For the same molecule, the cAMP in macrophages result in the data set with macrophages is “increase cAMP levels in macrophages”. The “BrdU incorporation compared with forskolin” value in [1] (Fig. 6 b) was “comparable to the effect of forskolin”. Besides, in data set [1] (pulsatile), the doubling time was ~ 4 d and the “cells synthesizing DNA in 24 h” value is recorded as ~25%. Besides, the “type of interaction with PDGF” value in data set [1] (setting [8]) is on record as “synergistic”. For the same molecule, in data set [1] (with PDGF, pulsatile, Fig. 6 b), the “effect together with PDGF compared with forskolin and PDGF” value was “as effective as forskolin and PDGF”. The “substrate of neutral endopeptidase 24.11” value in data set [6] is reported as “very good substrate”. Moreover, the “desensitization at lower dose” value in [5] (10^-8 M CGRP) is on record as “desensitization was reduced with this dose”. The “magnitude of cAMP response” value in data set [5] (5 min with 5 x 10^-8 M CGRP without IBMX, Discussion) is given as 8-10 fold. In addition, the “attenuation (desensitization) of cAMP response with time” value in data set [5] (Fig. 4 a) was “declined rapidly, even in the presence of IBMX”. The “cAMP over basal after 1 h” value in data set [5] (maximal dose of CGRP, declined even in the presence of IBMX, Fig. 4 a) is “twofold”. In addition, the “increase in cAMP over basal after 5 min” value in data set [5] (maximal dose of CGRP, without IBMX, high density, 4 d in defined medium, Fig. 4 a) was “eightfold”. Moreover, the “activity of CGRP after 3 h incubation with Schwann cells” value in data set [5] (medium from Schwann cells incubated with CGRP for 3 h transferred to fresh cultures, 5 min, Fig. 5) is recorded as “a comparable stimulation of cAMP”.

B1: PDGF: Recombinant human PDGF-BB purchased from R&D Systems (protein, UniProt P01127 82-190, looked up)
Platelet-derived growth …: SLGSLTIAEPAMIAECKTRTEVFEISRRLIDRTNANFLVWPPCVEVQRCSGCCNNRNVQCRPTQVQLRPVQVRKIEIVRKKPIFKKATVTLEDHLACKCETVAAARPVT
Take B1: in the data set on Schwann cells, the “promotion of Schwann cell proliferation” value is reported as “promote the proliferation”. In [3] (PDGF alone), the doubling time was 10 days. Besides, the “Schwann cells incorporating BrdU in 24 h” value in data set [3] (defined medium with PDGF alone (before forskolin), Discussion) is on record as 10%.
